# Measurements: patent US20250241895A1 (GH RESEARCH IRELAND LIMITED, priority 2022, published 2025)
# Test system: patients with postpartum depression (PPD)
# Test: Clinical trial of inhaled 5-MeO-DMT in postpartum depression
# Settings: for BIMF functional domain Adjustment score / BIMF functional domain Infant Care score: maximum possible 12; for BIMF functional domain Mother-Child Interaction score / BIMF functional domain Self Care score / BIMF functional domain Social Support score: maximum possible 18; for BIMF functional domain Management score: maximum possible 36; for BIMF functional domain Psychological Well-being score: maximum possible 60
# Description: The single-arm, open-label clinical trial will involve 15 adult female patients with clinically diagnosed postpartum depression (PPD).
# The second dose (12 mg) will only be administered if: • a. […] The 6 mg dose was safe and well-tolerated according to the investigator, • c. Any psychoactive effects (PsE) of the prior dose have subsided, and • d. Pre-dose vital parameters and forced expiratory volume in one second (FEV1) are in normal range, or if outside of the normal range, are not clinically significant according to the investigator. • 3. Similarly, a third dose (18 mg) will only be administered if: • a. […] The 12 mg dose was safe and well-tolerated according to the investigator, and • c. Any PsE of the prior dose have subsided, and • d. Pre-dose vital parameters and forced expiratory volume in one second (FEV1) are in normal range, or if outside of the normal range, are not clinically significant according to the investigator.
# The patients will be assessed for a peak psychedelic experience (based on a patient-scored visual analogue scale, the PE scale), sedation, and other endpoints after dosing. Follow-up visits are planned for Day 1, and Day 7 after the dosing day.
# The following criteria must be met by all patients considered for clinical trial participation: • 1. Is female and in the age range between 18 and 45 years (inclusive) at screening. • 2. Has a body mass index (BMI) in the range of 18.5 and 35 kg/m^2 (inclusive) at screening. • 3. Meets the trial criteria for PPD as assessed by a trial psychiatrist or registered psychologist: • a. Diagnosis of Major Depressive Disorder without psychotic features, confirmed by the Mini-International Neuropsychiatric Interview (MINI), with peri-partum onset that began no earlier than gestation and no later than the first 4 weeks postpartum. • b. Has a Montgomery-Åsberg Depression Rating Scale (MADRS) total score of equal to or greater than 28 at screening and pre-dose on Day 0. • 6. […] Patients must have a negative pregnancy test at screening and on the pre-test day (Day −1). • 5. Is willing to delay start of other antidepressant or anxiety medication until after the end of the trial at Day 7 and agrees to keep any psychotherapy unchanged during the trial.
# A potential patient who meets any of the following key exclusion criteria will be excluded from participation in this trial: • 1. Has, based on history, psychiatric assessment, and evaluation of the MINI, a current or prior diagnosis of bipolar disorder, a manic or hypomanic episode, a psychotic disorder, Major Depressive Disorder (MDD) or other mood disorder with psychotic features, obsessive compulsive disorder, post-traumatic stress disorder (PTSD), autism spectrum disorder, borderline personality disorder, schizophrenia, delusional disorder, paranoid personality disorder, schizoaffective disorder, clinically significant intellectual disability, or any other psychiatric comorbidity that renders the patient unsuitable for the trial according to the investigator's judgment. • 2. Has one or more first or second degree relatives with a current or previously diagnosed bipolar disorder, psychotic disorder or other mood disorder (including MDD) with psychotic features. • 3. Is in the judgement of a trial psychiatrist or registered psychologist, at significant risk for suicide based on history, psychiatric assessment, and evaluation of suicidal ideation and suicidal behaviour based on the Columbia-Suicide Severity Rating Scale (C-SSRS). • 4. Has taken anti-depressive medication within 14 days or 5 half-lives (whichever is longer) prior to dosing (exception: within the last 5 weeks in the case of fluoxetine). • 5.
# [1] = PPD patient n=1, 6 mg then 12 mg
# [2] = PPD patient n=1, 6 mg then 12 mg, 2 hr
# [3] = PPD patient n=1, 6 mg then 12 mg, Day 1
# [4] = PPD patient n=1, 6 mg then 12 mg, Day 7
# [5] = PPD patient n=1, 6 mg then 12 mg, discharge
# [6] = PPD patient n=1, Day 7 vs Day 0
compound,measurement,setting,value
COc1ccc2[nH]cc(CCN(C)C)c2c1 [5-MeO-DMT],tolerability of the inhalation procedure,PPD patient n=1,well tolerated with no inhalation-related adverse events
same,MADRS remission criteria (MADRS total score equal or less than 10),[1],fulfilled
same,MADRS response criteria (at least 50% improvement from baseline),[1],fulfilled
same,time to clinical remission after administration,[1],≤ 2 h
same,durability of clinical response,"PPD patient n=1, 6 mg then 12 mg given on one day",sustained over the 7-day follow-up period
same,Total MADRS improvement,[2],24
same,Total MADRS score,[2],5
same,BPRS Tension improvement,[3],5
same,Total MADRS improvement,[3],29
same,Total MADRS score,[3],0
same,BIMF item 1: I am a good mother,[4],6
same,BIMF item 2: I feel rested,[4],2
same,"BIMF item 3: I am comfortable with the way I've chosen to feed my baby (either bottle or breast, or both)",[4],6
same,BIMF item 4: My baby and I understand each other,[4],5
same,BIMF item 5: I am able to relax and enjoy time with my baby,[4],6
same,BIMF item 6: There are people in my life that I can trust to care for my baby when I need a break,[4],6
same,BIMF item 8: I am getting enough adult interaction,[4],6
same,BIMF item 9: I am getting enough encouragement from other people,[4],6
same,BIMF item 10: I trust my own feelings (instincts) when it comes to taking care of my baby,[4],6
same,BIMF item 11: I take a little time each week to do something for myself,[4],6
same,"BIMF item 12: I am taking good care of my baby's physical needs (feedings, changing diapers, doctor's appointments)",[4],6
same,"BIMF item 13: I am taking good care of my physical needs (eating, showering, etc)",[4],5
same,BIMF item 14: I make good decisions about my baby's health and well being,[4],6
same,BIMF item 15: My baby and I are getting into a routine,[4],6
same,BIMF item 16: I worry about how other people judge me (as a mother),[4],5
same,BIMF item 17: I am able to take care of my baby and my other responsibilities,[4],5
same,BIMF item 18: Anxiety or worry often interferes with my mothering ability,[4],5
same,BIMF item 20: I am satisfied with the job I am doing as a new mother,[4],5
same,Total MADRS improvement,[4],28
same,Total MADRS score,[4],1
same,BIMF functional domain Adjustment score,[4],6
same,BIMF functional domain Infant Care score,[4],12
same,BIMF functional domain Mother-Child Interaction score,[4],17
same,BIMF functional domain Self Care score,[4],13
same,BIMF functional domain Social Support score,[4],18
same,BIMF functional domain Management score,[4],33
same,BIMF functional domain Psychological Well-being score,[4],53
same,BPRS Blunted Affect score,[5],1
same,BPRS Conceptual disorganization score,[5],1
same,BPRS Disorientation score,[5],1
same,BPRS Grandiosity score,[5],1
same,BPRS Hallucinatory behaviour score,[5],1
same,BPRS Hostility score,[5],1
same,BPRS Mannerisms and Posturing score,[5],1
same,BPRS Motor retardation score,[5],1
same,BPRS Suspiciousness score,[5],1
same,BPRS Tension improvement,[5],5
same,BPRS Uncooperativeness score,[5],1
same,BPRS Unusual Thought Content score,[5],1
same,BIMF item 1: I am a good mother,"PPD patient n=1, Day 0",6
same,BIMF item 2: I feel rested,"PPD patient n=1, Day 0",0
same,"BIMF item 3: I am comfortable with the way I've chosen to feed my baby (either bottle or breast, or both)","PPD patient n=1, Day 0",6
same,BIMF item 4: My baby and I understand each other,"PPD patient n=1, Day 0",5
same,BIMF item 5: I am able to relax and enjoy time with my baby,"PPD patient n=1, Day 0",5
same,BIMF item 6: There are people in my life that I can trust to care for my baby when I need a break,"PPD patient n=1, Day 0",6
same,BIMF item 8: I am getting enough adult interaction,"PPD patient n=1, Day 0",6
same,BIMF item 9: I am getting enough encouragement from other people,"PPD patient n=1, Day 0",5
same,BIMF item 10: I trust my own feelings (instincts) when it comes to taking care of my baby,"PPD patient n=1, Day 0",5
same,BIMF item 11: I take a little time each week to do something for myself,"PPD patient n=1, Day 0",5
same,"BIMF item 12: I am taking good care of my baby's physical needs (feedings, changing diapers, doctor's appointments)","PPD patient n=1, Day 0",6
same,"BIMF item 13: I am taking good care of my physical needs (eating, showering, etc)","PPD patient n=1, Day 0",4
same,BIMF item 14: I make good decisions about my baby's health and well being,"PPD patient n=1, Day 0",6
same,BIMF item 15: My baby and I are getting into a routine,"PPD patient n=1, Day 0",5
same,BIMF item 16: I worry about how other people judge me (as a mother),"PPD patient n=1, Day 0",3
same,BIMF item 17: I am able to take care of my baby and my other responsibilities,"PPD patient n=1, Day 0",5
same,BIMF item 18: Anxiety or worry often interferes with my mothering ability,"PPD patient n=1, Day 0",2
same,"BIMF item 19: As time goes on, I am getting better at taking care of my baby","PPD patient n=1, Day 0",0
same,BIMF item 20: I am satisfied with the job I am doing as a new mother,"PPD patient n=1, Day 0",6
same,reported adverse events (cramping left abdominal pain and headache),"PPD patient n=1, Day 0","mild, short-lasting and resolved spontaneously"
same,BIMF functional domain Adjustment score,"PPD patient n=1, Day 0",5
same,BIMF functional domain Infant Care score,"PPD patient n=1, Day 0",12
same,BIMF functional domain Mother-Child Interaction score,"PPD patient n=1, Day 0",15
same,BIMF functional domain Self Care score,"PPD patient n=1, Day 0",9
same,BIMF functional domain Social Support score,"PPD patient n=1, Day 0",17
same,BIMF functional domain Management score,"PPD patient n=1, Day 0",28
same,BIMF functional domain Psychological Well-being score,"PPD patient n=1, Day 0",44
same,BIMF TOTAL score,"PPD patient n=1, Day 0, possible total 120",92
same,"BIMF total score improvement, percent","PPD patient n=1, Day 7",14%
same,"BIMF TOTAL score, Δ (Day 7)",[6],13
same,"BIMF functional domain Adjustment, % Improvement",[6],20.00%
same,"BIMF functional domain Infant Care, % Improvement",[6],0.00%
same,"BIMF functional domain Management, % Improvement",[6],18%
same,"BIMF functional domain Self Care, % Improvement",[6],44%
same,BPRS Anxiety score,"PPD patient n=1, baseline",7
same,BPRS Depressive Mood score,"PPD patient n=1, baseline",6
same,BPRS Emotional Withdrawal score,"PPD patient n=1, baseline",5
same,BPRS Excitement score,"PPD patient n=1, baseline",2
same,BPRS Guilt Feelings score,"PPD patient n=1, baseline",6
same,BPRS Somatic Concern score,"PPD patient n=1, baseline",6
same,MADRS Apparent sadness score,"PPD patient n=1, baseline",5
same,MADRS Concentration Difficulties score,"PPD patient n=1, baseline",0
same,MADRS Inability to Feel score,"PPD patient n=1, baseline",3
same,MADRS Reduced Sleep score,"PPD patient n=1, baseline",5
same,MADRS Reduced appetite score,"PPD patient n=1, baseline",0
same,MADRS Reported sadness score,"PPD patient n=1, baseline",4
same,MADRS Suicidal Thoughts score,"PPD patient n=1, baseline",0
same,Total MADRS score,"PPD patient n=1, baseline",29
same,changes in vital parameters,"PPD patient n=1, shortly after administration","temporary, clinically non-relevant increase in heart rate and blood pressure"
same,"ECG, safety laboratory analyses, CADSS","PPD patient n=1, ECG 3 hours, laboratory 7 days, CADSS 3 hours, 1 day and 7 days",unremarkable
